Tests used:
[1] = Nitric oxide gas bubbled through carrier, weight gain; type: physicochemical; settings: NO gas bubbled 40 hr, 25 ° C.
Description: This example illustrates one technique for preparing a composition in accordance with one embodiment of the invention. An accurate amount of a carrier (HNC 167-62) (see below) was introduced into a system. The carrier weight used in these experiments was approximately 250 g and the vessel size was 500 ml. The vessel was equipped with a mechanical stirrer, gas inlet, and gas outlet and was previously purged with argon for about an hour. The temperature of the carrier was kept at about 25-30° C. NO gas regulated at 5 psi (1 psi is about 6,900 Pa) and was then introduced at a controlled rate of about 1 bubble/s with continuous stirring. […] After 6 hours, the weight of the carrier had increased by 0.15%, by 12 hours by 0.25%, and by 24 hours by 0.56%. These increases in weight were believed to be significant considering the relative small molecular weight of NO versus the carrier. […] The carrier also can solidify upon cooling if the carrier is initially a solid at lower temperature.
Each carrier was taken in a 500 mL three necked flask equipped with a mechanical stirrer, gas inlet and a gas outlet. The system was purged with argon for one hour at room temperature (25° C.). Then nitric oxide gas was bubbled into the system. Then, nitric oxide gas was bubbled through carrier for stipulated amount of time. The changes in weight and color were noted. […]

[2] = system: micro-capillary blood flow to skin; assay: Laser Doppler study in closed Hilltop chamber on forearm, Example 5; type: in vivo, human; settings: applied to the skin at 1/10% in alcohol
Description: The formulation used in these studies contained nitric oxide dispersed in a lipid matrix. […] Nitric oxide is a very rapid acting molecule, and these studies used a system that employed laser Doppler with a covered chamber. The formulation was placed into the chamber and then attached to the skin by an adhesive layer on the covering. This provided a stable measuring device as determined by multiple normal evaluations of the capillary blood flow without treatment of nitric oxide.
A known positive control, methyl nicotinate, was applied to the skin at a concentration of 1/10% in alcohol. […] The vascular dynamics are such that when the blood vessels dilate physical parameters follow Bernoulli's law. […] The laser Doppler device accurately measured these parameters.
In these studies, the participants were healthy females aged 30 to 55 years. They were in good health as determined by the medical history and were not taking any prescription medications. All study participants read and signed the informed consent statement prior to any study procedures being performed. […]
A Moor Instruments DRT4 Laser Doppler Blood Flow Monitor (Devon, England) was used in these studies. The laser Doppler technique measured blood flow in the microcapillaries of the skin that are close to the skin surface and the blood flow in underlying arterioles and venules that help to regulate skin temperature. […]

[3] = system: capillary circulation of the skin; assay: Laser Doppler study of creams in five human subjects, Example 7; type: in vivo; settings: positive control formulation containing 0.1% methyl nicotinate
Description: This example illustrates delivery of nitric oxide formulations to five human subjects, using procedures and formulations similar to those discussed in Example 5. Each person served as their own control for the testing. A Moor Instruments Laser Doppler was used to determine circulation. […] The formulations used produce positive, almost immediate results when applied to the skin which, in these studies, was manifested by vasodilatation of the cutaneous vascular system.
For each subject, the following creams were applied: a negative control formulation (containing no NO), 0.010 gram of a 10,000 ppm NO formulation, 0.020 gram of a 10,000 ppm NO formulation, and a positive control formulation containing 0.1% methyl nicotinate. The formulations were prepared using procedures similar to those discussed in Example 1.

Structure (SMILES) | % Wt. gain [1] [%] | laser Doppler response to positive control [2] | vasodilatation (laser Doppler) [3]
OCCCO [1,3-Propanediol, 1,3-propanediol] | 0.09 | – | –
COC(=O)c1cccnc1 [methyl nicotinate] | – | rapid response typical of the vasodilator | vasodilatation was observed
